Experiment: White rabbit vaginal irritation and toxicity study (10 days)
Format: in vivo
Conditions: female rabbits, 10 days after application; animals with finding
Procedure: Gel formulations of the compound B at different concentrations were used to study the exclusion of any irritation in a Rabbit Vaingal Irritation test. 10 days after the application of the gel formulations onto 6 different rabbit groups, vaginal and cervical epithelium were carefully examined by a pathologist macroscopically and histologically. The following scores were determined.

Substance: Nonoxynol-9 [Nonoxynol-9, 4%]
- Cervical examination: Epithelial loss and atrophy, Marked: 3
- Cervical examination: Epithelial loss and atrophy, Slight: 1
- Cervical examination: Epithelial loss and atrophy, Total: 4a
- Cervical examination: Luminal Inflammatory cells, Present: 4
- Cervical examination: Luminal Inflammatory cells, Total: 4a
- Vaginal examination: Epithelial inflammatory infiltrate, Minimal: 3
- Vaginal examination: Epithelial inflammatory infiltrate, Slight: 2
- Vaginal examination: Epithelial inflammatory infiltrate, Total: 5a
- Vaginal examination: Epithelial loss and atrophy, Marked: 2
- Vaginal examination: Epithelial loss and atrophy, Severe: 3
- Vaginal examination: Epithelial loss and atrophy, Total: 5b

From patent publication US20200345733A1, “Microbicidal Pyrimidine or Triazine Containing Compounds” (Janssen Sciences Ireland UC, priority 2002, published 2020)
